Test results: patent US20240158446A1, “CYCLIC COMPOUND HAVING SELECTIVE INHIBITORY ACTION ON KRAS OVER HRAS AND NRAS” (CHUGAI SEIYAKU KABUSHIKI KAISHA, priority 2021, published 2024)
*1 amine or outer side, *2 acyl side, *3 side chain or, on linkers, in order; H or OH if unused. Where a SMILES comes first, the peptide text is derived from it. Bridges are numbered along the chain shown (N, C = ends). [ ]: non-standard residue; d: D form. The star is where a group is joined. hPhe(3-Cl-4-CF3) = N[C@@H](CCc1ccc(C(F)(F)F)c(Cl)c1)C(=O)O; NPrPhe(4-CF3) = CCCN[C@@H](Cc1ccc(C(F)(F)F)cc1)C(=O)O; NEtAsp = CCN([C@@H](CC(=O)[*:3])C(=O)[*:2])[*:1]; X7 = CCN([C@H](C(=O)[*:2])C1CCCC1)[*:1]; NMeGly(cPent) = CN[C@H](C(=O)O)C1CCCC1; NEtLeu = CCN[C@@H](CC(C)C)C(=O)O; NMeD = CN[C@@H](CC(=O)O)C(=O)O; NMeL = CN[C@@H](CC(C)C)C(=O)O; Morpholide = C1CN(*)CCO1; Ac5c = NC1(C(=O)O)CCCC1; Ac4c = NC1(C(=O)O)CCC1; Sar = CNCC(=O)O

What was measured:
[1] = target: GDP-bound NRAS wild-type protein (Homo sapiens, UniProt P01111); assay: Binding to NRAS by surface plasmon resonance (SPR), Single Cycle Kinetics; details: ratio of KD for GDP-bound NRAS wild-type protein to KD for KRAS, SPR
GDP-bound NRAS wild-type protein, sequence (P01111 whole entry): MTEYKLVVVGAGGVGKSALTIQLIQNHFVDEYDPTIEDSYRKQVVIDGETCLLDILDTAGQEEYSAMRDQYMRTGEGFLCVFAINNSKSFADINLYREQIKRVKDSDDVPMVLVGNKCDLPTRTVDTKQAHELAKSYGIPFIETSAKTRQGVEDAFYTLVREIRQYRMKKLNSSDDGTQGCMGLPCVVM

[2] = target: GDP-bound HRAS wild-type protein (Homo sapiens, UniProt P01112); assay: Binding to HRAS by surface plasmon resonance (SPR), Single Cycle Kinetics; details: ratio of KD for GDP-bound HRAS wild-type protein to KD for KRAS, SPR
GDP-bound HRAS wild-type protein, sequence (P01112 whole entry): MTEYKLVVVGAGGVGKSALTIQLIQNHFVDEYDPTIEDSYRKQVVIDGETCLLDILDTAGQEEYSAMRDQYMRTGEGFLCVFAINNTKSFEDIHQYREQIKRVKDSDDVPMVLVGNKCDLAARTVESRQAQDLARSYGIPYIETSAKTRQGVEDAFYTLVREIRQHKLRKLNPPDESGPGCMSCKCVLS

[3] = target: GDP-bound KRAS wild-type protein (Homo sapiens, UniProt P01116); assay: Binding to KRAS by surface plasmon resonance (SPR), Single Cycle Kinetics; details: SPR, Single Cycle Kinetics, GDP-bound KRAS wild-type protein; read-out: KRAS KD
GDP-bound KRAS wild-type protein, sequence (P01116 whole entry): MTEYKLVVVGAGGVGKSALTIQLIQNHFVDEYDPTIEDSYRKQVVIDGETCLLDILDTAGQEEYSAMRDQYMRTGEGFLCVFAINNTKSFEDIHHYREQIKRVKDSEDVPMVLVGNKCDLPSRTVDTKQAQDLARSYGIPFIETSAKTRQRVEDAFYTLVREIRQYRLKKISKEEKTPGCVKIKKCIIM

[4] = system: human lung cancer strain NCI-H441; assay: cells; details: NCI-H441, 96 h, read-out: NCI-H441 IC50 (nM), NCI-H441 cell proliferation, 4 days, CellTiter-Glo;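 also: cell proliferation inhibition after four days measured by CellTiter-Glo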

Structure (SMILES) | NRAS/KRAS (KD ratio) [1] | HRAS/KRAS (KD ratio) [2] | Kd [3] [nM] | IC50 [4] [nM]
CCCN1C(=O)CN(C)C(=O)CNC(=O)[C@H]([C@@H](C)CC)NC(=O)[C@H](CC(C)C)N(CC)C(=O)C[C@@H](C(=O)N2CCOCC2)N(C)C(=O)[C@H](C2CCCC2)N(C)C(=O)C2(CCCC2)NC(=O)[C@@H]2CCCN2C(=O)[C@H](CCc2ccc(C(F)(F)F)c(Cl)c2)NC(=O)CN(C)C(=O)[C@@H]1Cc1ccc(C(F)(F)F)cc1 [PP1967] ([NEtLeu]IG[Sar][NPrPhe(4-CF3)][Sar][hPhe(3-Cl-4-CF3)]P[Ac5c][NMeGly(cPent)][NMeD]-Morpholide; lactam N-11) | B (a compound having 3 or more and less than 10 is denoted as B) | B (a compound having 3 or more and less than 10 is denoted as B) | 0.36 | 10.9
CCCN(C)C(=O)[C@@H]1CC(=O)N(C)[C@@H](C)C(=O)N[C@@H]([C@@H](C)CC)C(=O)N(C)CC(=O)N(C)[C@H]2C/C=C\CCN(C2=O)[C@@H](Cc2ccc(C(F)(F)F)cc2)C(=O)N(C)CC(=O)N[C@@H](CCc2cc(F)c(C(F)(F)F)c(F)c2)C(=O)N2C[C@H](OCC)C[C@H]2C(=O)NC2(CCC2)C(=O)N(C)[C@@H](C2CCCC2)C(=O)N1C [PP1666] | A (a compound having 10 or more and less than 20 is denoted as A) | A (a compound having 10 or more and less than 20 is denoted as A) | 0.076 | 8.1
CCCN1C(=O)CN(C)C(=O)CNC(=O)[C@H]([C@@H](C)CC)NC(=O)[C@H](CC(C)C)N(C)C(=O)C[C@@H](C(=O)N2CCOCC2)N(CC)C(=O)[C@H](C2CCCC2)N(C)C(=O)C2(CCCC2)NC(=O)[C@@H]2CCCN2C(=O)[C@H](CCc2ccc(C(F)(F)F)c(Cl)c2)NC(=O)CN(C)C(=O)[C@@H]1Cc1ccc(C(F)(F)F)cc1 [PP1970] ([NMeL]IG[Sar][NPrPhe(4-CF3)][Sar][hPhe(3-Cl-4-CF3)]P[Ac5c][NMeGly(cPent)][NEtAsp]-Morpholide; lactam N-11) | B (a compound having 3 or more and less than 10 is denoted as B) | B (a compound having 3 or more and less than 10 is denoted as B) | 0.62 | 16.8
CCCN(C)C(=O)[C@@H]1CC(=O)N(C)[C@@H](COCC)C(=O)N[C@@H]([C@@H](C)CC)C(=O)N(C)CC(=O)N(C)[C@H]2C/C=C\CCN(C2=O)[C@@H](Cc2ccc(C(F)(F)F)cc2)C(=O)N(C)CC(=O)N[C@@H](CCc2cc(F)c(C(F)(F)F)c(F)c2)C(=O)N2C[C@H](OCC)C[C@H]2C(=O)NC2(CC(C)(C)C2)C(=O)N(C)[C@@H](C2CCCC2)C(=O)N1C [PP2031] | B (a compound having 3 or more and less than 10 is denoted as B) | B (a compound having 3 or more and less than 10 is denoted as B) | 0.14 | 5.5
CCC[C@H]1C(=O)N[C@@H]([C@@H](C)CC)C(=O)N(C)CC(=O)N(C)[C@H]2C/C=C\CCN(C2=O)[C@@H](Cc2ccc(C(F)(F)F)cc2)C(=O)N(C)CC(=O)N[C@@H](CCc2cc(F)c(C(F)(F)F)c(F)c2)C(=O)N2C[C@H](OCC)C[C@H]2C(=O)NC2(CC(C)(C)C2)C(=O)N(C)[C@@H](C2CCCC2)C(=O)N(C)[C@H](C(=O)N2CCC2)CC(=O)N1C [PP1943] | A (a compound having 10 or more and less than 20 is denoted as A) | B (a compound having 3 or more and less than 10 is denoted as B) | 0.11 | 9.2
CC[C@H](C)[C@@H]1NC(=O)[C@H](CC)N(C)C(=O)C[C@@H](C(=O)N(C)CC)N(C)C(=O)[C@H](C2CCCC2)N(C)C(=O)C2(CC(C)(C)C2)NC(=O)[C@@H]2C[C@H](C)CN2C(=O)[C@H](CCc2ccc(C(F)(F)F)c(Cl)c2)NC(=O)CN(C)C(=O)[C@H](Cc2ccc(C)cc2)N2CC/C=C\C[C@@H](C2=O)N(C)C(=O)CN(C)C1=O [PP1874] | A (a compound having 10 or more and less than 20 is denoted as A) | A (a compound having 10 or more and less than 20 is denoted as A) | 0.13 | 9.9
CCCN1C(=O)CN(C)C(=O)CN(C)C(=O)[C@H]([C@@H](C)CC)NC(=O)[C@H](CC(C)C)N(C)C(=O)C[C@@H](C(=O)N2CCOCC2)N(CC)C(=O)[C@H](C2CCCC2)N(C)C(=O)C2(CCC2)NC(=O)[C@@H]2CCCN2C(=O)[C@H](CCc2ccc(C(F)(F)F)c(Cl)c2)NC(=O)CN(C)C(=O)[C@@H]1Cc1ccc(C(F)(F)F)cc1 [PP1953] ([NMeL]I[Sar][Sar][NPrPhe(4-CF3)][Sar][hPhe(3-Cl-4-CF3)]P[Ac4c][NMeGly(cPent)][NEtAsp]-Morpholide; lactam N-11) | B (a compound having 3 or more and less than 10 is denoted as B) | B (a compound having 3 or more and less than 10 is denoted as B) | 0.42 | 8.7
CCO[C@@H]1C[C@H]2C(=O)NC3(CC(C)(C)C3)C(=O)N(C)[C@@H](C3CCCC3)C(=O)N(C)[C@H](C(=O)N(C)C)CC(=O)N(C)[C@@H](CC(C)C)C(=O)N[C@@H]([C@@H](C)CC)C(=O)N(C)CC(=O)N(C)[C@H]3C/C=C\CCN(C3=O)[C@@H](Cc3ccc(C(F)(F)F)cc3)C(=O)N(C)CC(=O)N[C@@H](CCc3ccc(C(F)(F)F)c(F)c3)C(=O)N2C1 [PP1931] | A (a compound having 10 or more and less than 20 is denoted as A) | B (a compound having 3 or more and less than 10 is denoted as B) | 0.12 | 9.5
CCCN1C(=O)CN(C)C(=O)CN(C)C(=O)[C@H]([C@@H](C)CC)NC(=O)[C@H](CC(C)C)N(C)C(=O)C[C@@H](C(=O)N2CCOCC2)N(C)C(=O)[C@H](C2CCCC2)N(CC)C(=O)C2(CCC2)NC(=O)[C@@H]2CCCN2C(=O)[C@H](CCc2ccc(C(F)(F)F)c(Cl)c2)NC(=O)CN(C)C(=O)[C@@H]1Cc1ccc(C(F)(F)F)cc1 [PP1952] ([NMeL]I[Sar][Sar][NPrPhe(4-CF3)][Sar][hPhe(3-Cl-4-CF3)]P[Ac4c][X7][NMeD]-Morpholide; lactam N-11) | B (a compound having 3 or more and less than 10 is denoted as B) | B (a compound having 3 or more and less than 10 is denoted as B) | 0.13 | 14
CCO[C@@H]1C[C@H]2C(=O)NC3(CCC3)C(=O)N(C)[C@@H](C3CCCC3)C(=O)N(C)[C@H](C(=O)N(C)CC)CC(=O)N(C)[C@@H](C3CCC3)C(=O)N[C@@H]([C@@H](C)CC)C(=O)N(C)CC(=O)N(C)[C@H]3C/C=C\CCN(C3=O)[C@@H](Cc3ccc(C(F)(F)F)cc3)C(=O)N(C)CC(=O)N[C@@H](CCc3cc(F)c(C(F)(F)F)c(F)c3)C(=O)N2C1 [PP1996] | A (a compound having 10 or more and less than 20 is denoted as A) | B (a compound having 3 or more and less than 10 is denoted as B) | 0.12 | 15.5
CCO[C@@H]1C[C@H]2C(=O)NC3(CCC3)C(=O)N(C)[C@@H](C(CC)CC)C(=O)N(C)[C@H](CC)CC(=O)N(C)[C@@H](CC)C(=O)N[C@@H]([C@@H](C)CC)C(=O)N(C)CC(=O)N(C)[C@H]3C/C=C\CCN(C3=O)[C@@H](Cc3ccc(C(F)(F)F)cc3)C(=O)N(C)CC(=O)N[C@@H](CCc3cc(F)c(C(F)(F)F)c(F)c3)C(=O)N2C1 [PP1624] | A (a compound having 10 or more and less than 20 is denoted as A) | A (a compound having 10 or more and less than 20 is denoted as A) | 1.1 | 55.8
CC[C@H](C)[C@@H]1NC(=O)[C@H](CC(F)F)N(C)C(=O)C[C@@H](C(=O)N(C)CC)N(C)C(=O)[C@H](C2CCCC2)N(C)C(=O)C2(CC(C)(C)C2)NC(=O)[C@@H]2C[C@H](C)CN2C(=O)[C@H](CCc2ccc(C(F)(F)F)c(Cl)c2)NC(=O)CN(C)C(=O)[C@H](Cc2ccc(C)cc2)N2CC/C=C\C[C@@H](C2=O)N(C)C(=O)CN(C)C1=O [PP1911] | A (a compound having 10 or more and less than 20 is denoted as A) | A (a compound having 10 or more and less than 20 is denoted as A) | 0.21 | 11.7
CC[C@H](C)[C@@H]1NC(=O)[C@H](CC)N(C)C(=O)C[C@@H](C(=O)N(C)C)N(C)C(=O)[C@H](C2CCCC2)N(C)C(=O)C2(CCC2)N(C)C(=O)[C@@H]2CCCN2C(=O)[C@H](CCc2cc(F)c(C(F)(F)F)c(F)c2)NC(=O)CN(C)C(=O)[C@H](Cc2ccc(C(F)(F)F)cc2)N2CC/C=C\C[C@@H](C2=O)N(C)C(=O)CN(C)C1=O [PP1780] | A (a compound having 10 or more and less than 20 is denoted as A) | A (a compound having 10 or more and less than 20 is denoted as A) | 0.065 | 8.2
CC[C@H](C)[C@@H]1NC(=O)[C@H](C2CCC2)N(C)C(=O)C[C@@H](C(=O)N(C)CC)N(C)C(=O)[C@H](C2CCCC2)N(C)C(=O)C2(CC(C)(C)C2)NC(=O)[C@@H]2C[C@H](C)CN2C(=O)[C@H](CCc2ccc(C(F)(F)F)c(OC)c2)NC(=O)CN(C)C(=O)[C@H](Cc2ccc(C(F)(F)F)cc2)N2CC/C=C\C[C@@H](C2=O)N(C)C(=O)CN(C)C1=O [PP2009] | A (a compound having 10 or more and less than 20 is denoted as A) | A (a compound having 10 or more and less than 20 is denoted as A) | 0.19 | 19.7
CC[C@H](C)[C@@H]1NC(=O)[C@H](CC(F)F)N(C)C(=O)C[C@@H](C(=O)N(C)C)N(C)C(=O)[C@H](C2CCCC2)N(C)C(=O)C2(CC(C)(C)C2)NC(=O)[C@@H]2C[C@H](C)CN2C(=O)[C@H](CCc2cc(F)c(C(F)(F)F)c(F)c2)NC(=O)CN(C)C(=O)[C@H](Cc2ccc(C(F)(F)F)cc2)N2CC/C=C\C[C@@H](C2=O)N(C)C(=O)CN(C)C1=O [PP1658] | A (a compound having 10 or more and less than 20 is denoted as A) | A (a compound having 10 or more and less than 20 is denoted as A) | 0.12 | 3.8
